Reference: patent US20250145635A1, “COMPOUND CONTAINING BIS(AZANYLYLIDENE) SULFONYL STRUCTURE AND USE THEREOF IN MEDICINE” (SCINNOHUB PHARMACEUTICAL CO., LTD., priority 2021, published 2025)

What was measured:
[1] = molecular target: USP9X (Homo sapiens (Human), UniProt Q93008); assay: USP9X enzyme activity experiment; assay type: biochemical; conditions: inhibition of USP9X enzyme, Ub-Rho 110 substrate
Protocol: • 1). A 1× analysis buffer was formulated, consisting of a modified Tris buffer (pH 7.5). • 2). Compound solutions of different concentrations were formulated with final concentrations of 3,000/1,000/300/100/30/10/3/1 nM (containing 1% DMSO), and added into a 384-well plate. • 3). A USP9X enzyme solution was formulated with the 1× analysis buffer. • 4). 10 μL of the USP9X enzyme solution was added into the 384-well plate, and incubated with the compounds at room temperature for 1 h. • 5). Rhodamine 110 Protein was added into the 1× analysis buffer to formulate a substrate working solution. • 6). 10 μL of the substrate solution was added into each reaction well, centrifuged for 30 s, and mixed uniformly for 30 s. • 7). The 384-well plate was placed on a microplate reader for detection, with an excitation wavelength of 480 nm and an emission wavelength of 540 nm. Test was conducted for 30 minutes and the data was collected. • 8. Fitting the dose-effect curve.
(§1) With the log value of the compound concentration as the X axis and the percentage inhibition rate as the Y axis, a dose-effect curve was fitted with the log(inhibitor) vs. response-variable slope of the analysis software GraphPad Prism 5, and the IC50 value of the activity of each compound against USP9X was obtained.

[2] = molecular target: recombinant human PKR enzyme (Homo sapiens (Human), UniProt P30613); assay: Pyruvate kinase (PKR) activity experiment; assay type: biochemical; conditions: activation of recombinant human PKR enzyme
Protocol: • 1). A recombinant human PKR enzyme solution was formulated at a concentration of 60 ng/well (a 20 μL reaction system), and 5 μL of the solution was added into each well of a black transparent bottom 384-well plate. • 2). Compound solutions were formulated at different concentrations, with the final concentrations of 1000/300/100 nM (containing 1% DMSO). Each 5 μL of the compound solution was added into the plate in item 3.1 and mixed well. The plate was incubated at room temperature for 10 min. • 3). A reaction system was formulated according to the instructions of a kit (as shown in the table below), and 10 μL of the reaction system was added into each well of the 384-well plate, and mixed uniformly with the solution in item 3.2.
• 4). The 384-well plate was placed on a microplate reader to detect the fluorescence value at 540/590 nm, where the value was read every 2 minutes and the detection was conducted continuously for 1 hour. • 5). The Slope value within the detection time was calculated, and the 0.1% DMSO well was used as a control well to calculate a compound activation rate.
[formula] • 6). Fitting dose-effect curve
as §1, with “activation” for “inhibition”, “log(agonist)” for “log(inhibitor)”, “AC50” for “IC50”, “PKR” for “USP9X”

Chain of recombinant human PKR enzyme (P30613 whole entry): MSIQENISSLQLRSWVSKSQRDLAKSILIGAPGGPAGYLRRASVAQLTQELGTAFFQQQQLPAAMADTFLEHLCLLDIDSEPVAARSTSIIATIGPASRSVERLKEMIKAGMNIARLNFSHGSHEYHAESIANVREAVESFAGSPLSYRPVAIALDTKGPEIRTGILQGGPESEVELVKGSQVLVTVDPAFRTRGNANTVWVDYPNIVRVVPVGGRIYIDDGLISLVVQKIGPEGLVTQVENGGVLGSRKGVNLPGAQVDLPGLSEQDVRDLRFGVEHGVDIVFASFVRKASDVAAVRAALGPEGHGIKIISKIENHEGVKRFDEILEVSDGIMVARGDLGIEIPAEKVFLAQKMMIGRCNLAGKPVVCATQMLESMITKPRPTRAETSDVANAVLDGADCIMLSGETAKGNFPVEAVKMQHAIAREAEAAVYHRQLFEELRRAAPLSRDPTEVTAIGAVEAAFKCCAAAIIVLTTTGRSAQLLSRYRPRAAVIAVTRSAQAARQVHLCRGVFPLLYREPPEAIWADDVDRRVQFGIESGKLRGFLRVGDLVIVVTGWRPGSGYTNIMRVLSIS
Chain of USP9X (Q93008 whole entry): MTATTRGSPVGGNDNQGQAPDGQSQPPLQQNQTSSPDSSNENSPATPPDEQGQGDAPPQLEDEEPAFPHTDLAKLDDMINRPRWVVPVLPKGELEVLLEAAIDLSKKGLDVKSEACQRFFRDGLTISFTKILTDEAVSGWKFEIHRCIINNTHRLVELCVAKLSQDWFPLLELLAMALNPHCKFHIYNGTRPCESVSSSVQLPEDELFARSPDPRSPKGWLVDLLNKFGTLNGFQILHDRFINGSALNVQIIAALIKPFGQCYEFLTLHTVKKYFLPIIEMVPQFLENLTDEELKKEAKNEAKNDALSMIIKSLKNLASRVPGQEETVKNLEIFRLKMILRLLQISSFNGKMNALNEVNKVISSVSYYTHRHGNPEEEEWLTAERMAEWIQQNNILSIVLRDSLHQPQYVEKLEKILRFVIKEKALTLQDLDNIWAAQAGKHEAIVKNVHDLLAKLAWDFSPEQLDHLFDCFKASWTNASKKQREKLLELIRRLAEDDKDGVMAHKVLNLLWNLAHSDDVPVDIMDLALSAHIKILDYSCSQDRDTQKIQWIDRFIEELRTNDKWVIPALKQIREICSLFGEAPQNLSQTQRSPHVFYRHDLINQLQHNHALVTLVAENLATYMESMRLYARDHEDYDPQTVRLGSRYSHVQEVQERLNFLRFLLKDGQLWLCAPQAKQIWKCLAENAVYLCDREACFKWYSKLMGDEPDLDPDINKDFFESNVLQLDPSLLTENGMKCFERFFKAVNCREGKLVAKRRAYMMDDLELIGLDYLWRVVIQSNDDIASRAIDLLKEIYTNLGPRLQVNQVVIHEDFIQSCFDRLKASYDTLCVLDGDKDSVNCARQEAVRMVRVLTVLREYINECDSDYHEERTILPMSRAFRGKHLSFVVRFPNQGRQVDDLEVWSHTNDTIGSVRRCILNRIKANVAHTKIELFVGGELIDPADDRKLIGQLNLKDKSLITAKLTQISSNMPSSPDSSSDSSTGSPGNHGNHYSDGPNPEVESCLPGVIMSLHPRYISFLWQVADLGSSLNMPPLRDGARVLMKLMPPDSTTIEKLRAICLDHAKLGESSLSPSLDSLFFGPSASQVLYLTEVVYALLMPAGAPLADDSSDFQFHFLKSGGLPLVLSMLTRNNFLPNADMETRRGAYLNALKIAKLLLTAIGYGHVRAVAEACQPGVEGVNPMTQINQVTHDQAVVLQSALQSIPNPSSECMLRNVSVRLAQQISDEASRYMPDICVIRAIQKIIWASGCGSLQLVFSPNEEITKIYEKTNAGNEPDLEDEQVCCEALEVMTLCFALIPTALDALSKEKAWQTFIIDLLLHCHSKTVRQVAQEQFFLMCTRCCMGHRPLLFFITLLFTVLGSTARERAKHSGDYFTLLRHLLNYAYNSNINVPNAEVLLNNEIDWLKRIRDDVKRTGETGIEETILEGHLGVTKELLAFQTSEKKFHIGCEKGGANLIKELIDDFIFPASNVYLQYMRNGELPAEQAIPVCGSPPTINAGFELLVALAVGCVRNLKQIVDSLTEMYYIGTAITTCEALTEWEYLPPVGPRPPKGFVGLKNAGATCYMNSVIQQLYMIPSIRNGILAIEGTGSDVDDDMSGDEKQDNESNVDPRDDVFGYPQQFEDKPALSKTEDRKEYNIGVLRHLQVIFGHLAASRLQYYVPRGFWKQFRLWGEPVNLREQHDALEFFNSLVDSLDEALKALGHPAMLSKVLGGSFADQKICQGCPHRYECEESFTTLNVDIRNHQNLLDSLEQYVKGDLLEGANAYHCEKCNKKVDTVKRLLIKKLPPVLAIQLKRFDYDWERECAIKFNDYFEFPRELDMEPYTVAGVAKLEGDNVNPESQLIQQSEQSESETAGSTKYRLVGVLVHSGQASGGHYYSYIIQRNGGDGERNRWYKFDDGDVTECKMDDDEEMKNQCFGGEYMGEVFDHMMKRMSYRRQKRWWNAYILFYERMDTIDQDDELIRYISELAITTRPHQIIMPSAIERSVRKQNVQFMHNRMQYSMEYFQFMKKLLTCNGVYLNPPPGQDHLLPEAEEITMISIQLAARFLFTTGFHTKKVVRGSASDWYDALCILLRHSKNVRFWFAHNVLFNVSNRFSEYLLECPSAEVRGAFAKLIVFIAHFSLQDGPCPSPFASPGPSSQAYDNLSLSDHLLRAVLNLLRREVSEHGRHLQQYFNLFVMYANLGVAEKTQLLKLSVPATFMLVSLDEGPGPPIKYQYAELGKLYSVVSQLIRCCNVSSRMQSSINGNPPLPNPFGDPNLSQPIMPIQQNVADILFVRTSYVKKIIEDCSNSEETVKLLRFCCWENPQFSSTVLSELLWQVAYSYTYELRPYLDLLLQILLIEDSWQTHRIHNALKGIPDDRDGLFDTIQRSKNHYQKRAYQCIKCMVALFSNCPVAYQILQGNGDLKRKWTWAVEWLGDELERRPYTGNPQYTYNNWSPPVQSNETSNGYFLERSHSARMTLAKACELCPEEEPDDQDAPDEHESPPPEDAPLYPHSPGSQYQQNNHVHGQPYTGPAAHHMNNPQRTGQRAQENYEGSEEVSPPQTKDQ

SMILES	IC50 [1] [nM]	AC50 [2] [nM]
O=C(C(CO)c1ccccc1)N1CC(=C2CN(S(=O)(=O)c3ccc(OC(F)F)cc3)C2)C1 (stereo not shown) [Compound 6, 1-(1′-((4-(difluoromethoxy)phenyl)sulfonyl)-1′,4′-dihydro-2H,2′H-[3,3′-diazetidinylidene]-1(4H)-yl)-3-hydroxy-2-phenylpropan-1-one]	101 to 300	
O=C(C(CO)c1ccc(F)c(F)c1)N1CC(=C2CN(S(=O)(=O)c3ccccn3)C2)C1 (stereo not shown) [Compound 61, 2-(3,4-difluorophenyl)-3-hydroxy-1-(1′-(pyridin-2-ylsulfonyl)-1′,4′-dihydro-2H,2′H-[3,3′-diazetidinylidene]-1(4H)-yl)propan-1-one]		300 to 1000
O=C([C@H](CO)c1ccccc1)N1CC(=C2CN(S(=O)(=O)c3cccc4cccnc34)C2)C1 [Compound 69, (S)-3-hydroxy-2-phenyl-1-(1′-(quinolin-8-ylsulfonyl)-1′,4′-dihydro-2H,2′H-[3,3′-diazetidinylidene]-1(4H)-yl)propan-1-one]		< 100
N#Cc1ccc(S(=O)(=O)N2CC(=C3CN(C(=O)[C@H](CO)c4ccccc4)C3)C2)nc1 [Compound 70, (S)-6-((1′-(3-hydroxy-2-phenylpropionyl)-1′,4′-dihydro-2H,2′H-[3,3′-diazetidinylidene]-1(4H)-yl)sulfonyl)nicotinonitrile]		300 to 1000
CCOc1ccc(S(=O)(=O)N2CC(=C3CN(C(=O)[C@H](CO)c4ccccc4)C3)C2)nc1 [Compound 72, (S)-1-(1′-((5-ethoxypyridin-2-yl)sulfonyl)-1′,4′-dihydro-2H,2′H-[3,3′-diazetidinylidene]-1(4H)-yl)-3-hydroxy-2-phenylpropan-1-one]		< 100
O=C(C(CO)c1ccc(Cl)cc1)N1CC(=C2CN(S(=O)(=O)c3ccccn3)C2)C1 (stereo not shown) [Compound 75, 2-(4-chlorophenyl)-3-hydroxy-1-(1′-(pyridin-2-ylsulfonyl)-1′,4′-dihydro-2H,2′H-[3,3′-diazetidinylidene]-1(4H)-yl)propan-1-one]		101 to 300
O=C([C@H](CO)c1ccc(F)c(Cl)c1)N1CC(=C2CN(S(=O)(=O)c3ccccn3)C2)C1 [Compound 77, (S)-2-(3-chloro-4-fluorophenyl)-3-hydroxy-1-(1′-(pyridin-2-ylsulfonyl)-1′,4′-dihydro-2H,2′H-[3,3′-diazetidinylidene]-1(4H)-yl)propan-1-one]		< 100
O=C([C@H](CO)c1ccccc1)N1CC(=C2CN(S(=O)(=O)c3ccc(OC(F)F)cn3)C2)C1 [Compound 80, (S)-1-(1′-((5-(difluoromethoxy)pyridin-2-yl)sulfonyl)-1′,4′-dihydro-2H,2′H-[3,3′-diazetidinylidene]-1(4H)-yl)-3-hydroxy-2-phenylpropan-1-one]		< 100
CC(C)Oc1ccc(S(=O)(=O)N2CC(=C3CN(C(=O)[C@H](CO)c4ccccc4)C3)C2)nc1 [Compound 81, (S)-3-hydroxy-1-(1′-((5-isopropoxypyridin-2-yl)sulfonyl)-1′,4′-dihydro-2H,2′H-[3,3′-diazetidinylidene]-1(4H)-yl)-2-phenylpropan-1-one]		101 to 300
O=C([C@H](CO)c1ccccc1)N1CC(=C2CN(S(=O)(=O)c3ccc(OC4CC4)cn3)C2)C1 [Compound 82, (S)-1-(1′-((5-cyclopropoxypyridin-2-yl)sulfonyl)-1′,4′-dihydro-2H,2′H-[3,3′-diazetidinylidene]-1(4H)-yl)-3-hydroxy-2-phenylpropan-1-one]		< 100
O=C([C@@H](CO)c1ccc(F)cc1F)N1CC(=C2CN(S(=O)(=O)c3ccccn3)C2)C1 [Compound 84, (R)-2-(2,4-difluorophenyl)-3-hydroxy-1-(1′-(pyridin-2-ylsulfonyl)-1′,4′-dihydro-2H,2′H-[3,3′-diazetidinylidene]-1(4H)-yl)propan-1-one]		300 to 1000
N#Cc1ccc(C(CO)C(=O)N2CC(=C3CN(S(=O)(=O)c4ccccn4)C3)C2)cc1 (stereo not shown) [Compound 85, 4-(3-hydroxy-1-oxo-1-(1′-(pyridin-2-ylsulfonyl)-1′,4′-dihydro-2H,2′H-[3,3′-diazetidinylidene]-1(4H)-yl)propan-2-yl)benzonitrile]		300 to 1000
O=C(C(CO)c1cc(F)cc(Cl)c1)N1CC(=C2CN(S(=O)(=O)c3ccccn3)C2)C1 (stereo not shown) [Compound 86, 2-(3-chloro-5-fluorophenyl)-3-hydroxy-1-(1′-(pyridin-2-ylsulfonyl)-1′,4′-dihydro-2H,2′H-[3,3′-diazetidinylidene]-1(4H)-yl)propan-1-one]		300 to 1000
O=C(C(CO)C1CCCCC1)N1CC(=C2CN(S(=O)(=O)c3ccccn3)C2)C1 (stereo not shown) [Compound 90, 2-cyclohexyl-3-hydroxy-1-(1′-(pyridin-2-ylsulfonyl)-1′,4′-dihydro-2H,2′H-[3,3′-diazetidinylidene]-1(4H)-yl)propan-1-one]		101 to 300
[2H]C([2H])([2H])Oc1ccc(S(=O)(=O)N2CC(=C3CN(C(=O)[C@H](CO)c4ccccc4)C3)C2)nc1 [Compound 91, (S)-3-hydroxy-1-(1′-((5-(methoxy-d3)pyridin-2-yl)sulfonyl)-1′,4′-dihydro-2H,2′H-[3,3′-diazetidinylidene]-1(4H)-yl)-2-phenylpropan-1-one]		< 100

Next, values leading:

IC50 [1] [nM]	AC50 [2] [nM]	SMILES
	101 to 300	Cn1cnc2ccc(S(=O)(=O)N3CC(=C4CN(C(=O)[C@H](CO)c5ccccc5)C4)C3)cc21 [Compound 63, (S)-3-hydroxy-1-(1′-((1-methyl-1H-benzimidazol-6-yl)sulfonyl)-1′,4′-dihydro-2H,2′H-[3,3′-diazetidinylidene]-1(4H)-yl)-2-phenylpropan-1-one]
	101 to 300	N#Cc1ccc(S(=O)(=O)N2CC(=C3CN(C(=O)[C@H](CO)c4ccccc4)C3)C2)cc1 [Compound 65, (S)-4-(1′-(3-hydroxy-2-phenylpropionyl)-1′,4′-dihydro-2H,2′H-[3,3′-diazetidinylidene]-1(4H)-ylsulfonyl)benzonitrile]
	101 to 300	O=C([C@H](CO)c1ccccc1)N1CC(=C2CN(S(=O)(=O)c3ccc(Cl)cn3)C2)C1 [Compound 66]
	< 100	COc1ccc(S(=O)(=O)N2CC(=C3CN(C(=O)[C@H](CO)c4ccccc4)C3)C2)nc1 [Compound 67, (S)-3-hydroxy-1-(1′-((5-methoxypyridin-2-yl)sulfonyl)-1′,4′-dihydro-2H,2′H-[3,3′-diazetidinylidene]-1(4H)-yl)-2-phenylpropan-1-one]
	300 to 1000	O=C([C@H](CO)c1ccccc1)N1CC(=C2CN(S(=O)(=O)c3cccnc3)C2)C1 [Compound 68, (S)-3-hydroxy-2-phenyl-1-(1′-(pyridin-3-ylsulfonyl)-1′,4′-dihydro-2H,2′H-[3,3′-diazetidinylidene]-1(4H)-yl)propane-1-one]
	< 100	O=C(C(CO)c1ccc(C(F)F)cc1)N1CC(=C2CN(S(=O)(=O)c3ccccn3)C2)C1 (stereo not shown) [Compound 71, 2-(4-(difluoromethyl)phenyl)-3-hydroxy-1-(1′-(pyridin-2-ylsulfonyl)-1′,4′-dihydro-2H,2′H-[3,3′-diazetidinylidene]-1(4H)-yl)propan-1-one]
	300 to 1000	O=C([C@@H](CO)c1ccc(F)c(Cl)c1)N1CC(=C2CN(S(=O)(=O)c3ccccn3)C2)C1 [Compound 76, (R)-2-(3-chloro-4-fluorophenyl)-3-hydroxy-1-(1′-(pyridin-2-ylsulfonyl)-1′,4′-dihydro-2H,2′H-[3,3′-diazetidinylidene]-1(4H)-yl)propan-1-one]
	< 100	O=C([C@H](CO)c1ccc(F)cc1F)N1CC(=C2CN(S(=O)(=O)c3ccccn3)C2)C1 [Compound 83, (S)-2-(2,4-difluorophenyl)-3-hydroxy-1-(1′-(pyridin-2-ylsulfonyl)-1′,4′-dihydro-2H,2′H-[3,3′-diazetidinylidene]-1(4H)-yl)propan-1-one]
	< 100	COc1ccc(S(=O)(=O)N2CC(=C3CN(C(=O)[C@H](CO)c4ccc(F)cc4F)C3)C2)nc1 [Compound 87, (S)-2-(2,4-difluorophenyl)-3-hydroxy-1-(1′-((5-methoxypyridin-2-yl)sulfonyl)-1′,4′-dihydro-2H,2′H-[3,3′-diazetidinylidene]-1(4H)-yl)propan-1-one]
	300 to 1000	COc1ccc(S(=O)(=O)N2CC(=C3CN(C(=O)[C@@H](CO)c4ccc(F)cc4F)C3)C2)nc1 [Compound 88, (R)-2-(2,4-difluorophenyl)-3-hydroxy-1-(1′-((5-methoxypyridin-2-yl)sulfonyl)-1′,4′-dihydro-2H,2′H-[3,3′-diazetidinylidene]-1(4H)-yl)propan-1-one]
